Results taken from ChEMBL document CHEMBL3885881, “DrugMatrix”.
Values joined by “and” are separate entries in the source; they are usually repeats but may differ in a detail not shown here. Equal entries are not always repeated.

Species: Rattus norvegicus
Assay: DrugMatrix - Regimen: Daily Repeat
Assay type: toxicity, organism-based, Sprague-Dawley
Parameters: regimen Daily Repeat, gender Male, age 6-8 weeks
Details: in vivo, ip, 0 mg/kg, route intraperitoneal, dose level Control, vehicle 100 % SALINE; for ABSOLUTE BASOPHIL / ABSOLUTE EOSINOPHIL / ABSOLUTE LYMPHOCYTE / ABSOLUTE MONOCYTE / ABSOLUTE SEGMENTED NEUTROPHIL / BASOPHIL / EOSINOPHIL / ERYTHROCYTE COUNT / HEMATOCRIT / HEMOGLOBIN / LEUKOCYTE COUNT / LYMPHOCYTE / MEAN CORPUSCULAR HEMOGLOBIN / MEAN CORPUSCULAR HEMOGLOBIN CONCENTRATION / MEAN CORPUSCULAR VOLUME / MONOCYTE / NEUTROPHIL / PLATELET COUNT: tissue Blood
[1] = 120 h, tissue Plasma, time 5 day
[2] = […], tissue Plasma, time 14 day
[3] = […], tissue Plasma, time 28 day

**Q.** Which results are given for GOLD SODIUM THIOMALATE?
**A.** ABSOLUTE BASOPHIL (120 h, time 5 day): 32 cells/µL; ABSOLUTE EOSINOPHIL (120 h, time 5 day): 110 cells/µL; ABSOLUTE LYMPHOCYTE (120 h, time 5 day): 6630 cells/µL; ABSOLUTE MONOCYTE (120 h, time 5 day): 140 cells/µL; ABSOLUTE SEGMENTED NEUTROPHIL (120 h, time 5 day): 1170 cells/µL; BASOPHIL (120 h, time 5 day): 0.38% and 0.35%; EOSINOPHIL (120 h, time 5 day): 1.28% and 0.62%; ERYTHROCYTE COUNT (120 h, time 5 day): 7.45 x10E6/uL and 7.26 x10E6/uL; HEMATOCRIT (120 h, time 5 day): 45.74% and 47.97%; HEMOGLOBIN (120 h, time 5 day): 14.72 G/DL and 15.38 G/DL; LEUKOCYTE COUNT (120 h, time 5 day): 8.11 x10E3/uL and 8.68 x10E3/uL; LYMPHOCYTE (120 h, time 5 day): 81.3% and 86.77%; MEAN CORPUSCULAR HEMOGLOBIN (120 h, time 5 day): 19.76 pg and 21.18 pg; MEAN CORPUSCULAR HEMOGLOBIN CONCENTRATION (120 h, time 5 day): 32.16 G/DL and 32.05 G/DL; MEAN CORPUSCULAR VOLUME (120 h, time 5 day): 61.38 fL and 66.15 fL; MONOCYTE (120 h, time 5 day): 1.76% and 1.57%; NEUTROPHIL (120 h, time 5 day): 14.9% and 9.53%; PLATELET COUNT (120 h, time 5 day): 1322.4 x10E3/uL and 1786 x10E3/uL; ALANINE AMINOTRANSFERASE [1]: 25.8 u/L and 20.5 u/L; ALBUMIN [1]: 3.64 G/DL and 4.35 G/DL; ALKALINE PHOSPHATASE [1]: 300 u/L; ASPARTATE AMINOTRANSFERASE [1]: 81.4 u/L and 86.75 u/L; BLOOD UREA NITROGEN [1]: 14.4 mg/dL and 17 mg/dL; CARBON DIOXIDE [1]: 29 mmol/L; CHOLESTEROL [1]: 69.2 mg/dL and 51.25 mg/dL; CREATINE PHOSPHOKINASE [1]: 303.2 u/L and 384.75 u/L; CREATININE [1]: 0.56 mg/dL and 0.47 mg/dL; GLUCOSE [1]: 125.4 mg/dL and 128.75 mg/dL; LACTATE DEHYDROGENASE [1]: 105.4 u/L and 145 u/L; LIPASE [1]: 22.4 u/L and 13.25 u/L; PHOSPHORUS [1]: 11.8 mg/dL; POTASSIUM [1]: 5.52 MEQ/L and 6.58 MEQ/L; SODIUM [1]: 147 MEQ/L and 151 MEQ/L; TOTAL BILIRUBIN [1]: 0.2 mg/dL and 0.33 mg/dL; TOTAL PROTEIN [1]: 6.1 G/DL and 6.53 G/DL; URIC ACID [1]: 1.06 mg/dL and 1.95 mg/dL; ABSOLUTE BASOPHIL ([…], time 14 day): 130 cells/µL; ABSOLUTE EOSINOPHIL ([…], time 14 day): 140 cells/µL; ABSOLUTE LYMPHOCYTE ([…], time 14 day): 13500 cells/µL; ABSOLUTE MONOCYTE ([…], time 14 day): 400 cells/µL; ABSOLUTE SEGMENTED NEUTROPHIL ([…], time 14 day): 2330 cells/µL; HEMATOCRIT ([…], time 14 day): 45.98%; HEMOGLOBIN ([…], time 14 day): 15.17 G/DL; MEAN CORPUSCULAR VOLUME ([…], time 14 day): 59.4 fL; NEUTROPHIL ([…], time 14 day): 14.14%; ABSOLUTE BASOPHIL ([…], time 28 day): 91 cells/µL; ABSOLUTE EOSINOPHIL ([…], time 28 day): 110 cells/µL; ABSOLUTE LYMPHOCYTE ([…], time 28 day): 9910 cells/µL; ABSOLUTE MONOCYTE ([…], time 28 day): 210 cells/µL; ABSOLUTE SEGMENTED NEUTROPHIL ([…], time 28 day): 1560 cells/µL; BASOPHIL ([…], time 28 day): 0.77%; EOSINOPHIL ([…], time 28 day): 0.92%; ERYTHROCYTE COUNT ([…], time 28 day): 8.21 x10E6/uL; HEMATOCRIT ([…], time 28 day): 47.53%; HEMOGLOBIN ([…], time 28 day): 15.65 G/DL; LEUKOCYTE COUNT ([…], time 28 day): 11.91 x10E3/uL; LYMPHOCYTE ([…], time 28 day): 83.34%; MEAN CORPUSCULAR HEMOGLOBIN ([…], time 28 day): 19.07 pg; MEAN CORPUSCULAR HEMOGLOBIN CONCENTRATION ([…], time 28 day): 32.93 G/DL; MEAN CORPUSCULAR VOLUME ([…], time 28 day): 57.9 fL; MONOCYTE ([…], time 28 day): 1.68%; NEUTROPHIL ([…], time 28 day): 12.97%; PLATELET COUNT ([…], time 28 day): 1323.8 x10E3/uL; ALBUMIN [2]: 3.66 G/DL; CARBON DIOXIDE [2]: 25 mmol/L; CHLORIDE [2]: 107 MEQ/L; CREATINE PHOSPHOKINASE [2]: 410.25 u/L; SODIUM [2]: 149.2 MEQ/L; URIC ACID [2]: 0.94 mg/dL; ALANINE AMINOTRANSFERASE [3]: 30 u/L; ALBUMIN [3]: 3.71 G/DL; ALKALINE PHOSPHATASE [3]: 186.8 u/L; ASPARTATE AMINOTRANSFERASE [3]: 78.2 u/L; BLOOD UREA NITROGEN [3]: 14.2 mg/dL; CHOLESTEROL [3]: 44.9 mg/dL; CREATINE PHOSPHOKINASE [3]: 334.3 u/L; CREATININE [3]: 0.6 mg/dL; GLUCOSE [3]: 147.2 mg/dL; LACTATE DEHYDROGENASE [3]: 123.1 u/L; LIPASE [3]: 9.6 u/L; PHOSPHORUS [3]: 10.01 mg/dL; POTASSIUM [3]: 6.57 MEQ/L
